Experimental data from ChEMBL document CHEMBL5252526, “Small Molecule Kinase Inhibitors for the Treatment of Brain Cancer” (J Med Chem, 2016).

Experiments:
[1] = Ratio of drug concentration in brain to plasma in rat; assay type: ADME, cell-free; conditions: brain and plasma, read-out: BPR
[2] = Ratio of drug concentration in brain to plasma in mouse; assay type: ADME, cell-free; conditions: brain and plasma, read-out: BPR
[3] = Ratio of AUC in brain to plasma in rat at 25 mg/kg, po; assay type: ADME, organism-based; conditions: brain and plasma, read-out: Ratio AUC
[4] = Ratio of drug concentration in brain to plasma in mouse assessed as unbound fraction; assay type: ADME, cell-free; conditions: brain and plasma, read-out: K(p,uu,brain)
[5] = Ratio of AUC in brain to plasma in rat at 75 mg/kg, po; assay type: ADME, organism-based; conditions: brain and plasma, read-out: Ratio AUC
[6] = Ratio of AUC (0 to 24 hrs) in brain to plasma in mouse; assay type: ADME, cell-free; conditions: brain and plasma, read-out: Ratio AUC
[7] = Ratio of drug concentration in brain to plasma in mouse at 75 mg/kg, po; assay type: ADME, organism-based; conditions: brain and plasma, read-out: BPR
[8] = Ratio of drug concentration in brain to plasma in rat at 3.5 mg/kg, iv; assay type: ADME, organism-based; conditions: brain and plasma, read-out: BPR
[9] = Ratio of drug concentration in CSF to plasma in mouse assessed as unbound fraction; assay type: ADME, tissue-based; conditions: CSF and plasma

## COc1cc(Nc2c(C#N)cnc3cc(OCCCN4CCN(C)CC4)c(OC)cc23)c(Cl)cc1Cl [BOSUTINIB]
[1]
  Kp: 0.4

## COc1cc2c(Oc3ccc(NC(=O)C4(C(=O)Nc5ccc(F)cc5)CC4)cc3F)ccnc2cc1OCCCN1CCOCC1 [FORETINIB]
[2]
  Kp: 0.2

## CC[C@H](CO)Nc1nc(NCc2ccccc2)c2ncn(C(C)C)c2n1 [SELICICLIB]
[3]
  Kp: 0.3

## CCN1CCN(Cc2ccc(Nc3ncc(F)c(-c4cc(F)c5nc(C)n(C(C)C)c5c4)n3)nc2)CC1 [ABEMACICLIB]
[4]
  Kp uu: 0.2

## CC(C)(O)CC(=O)NCCn1ccc2ncnc(Nc3ccc(Oc4cccc(C(F)(F)F)c4)c(Cl)c3)c21 [TAK-285]
[5]
  Kp: 0.24

## Cc1ccc(C(=O)Nc2ccc(CN3CCN(C)CC3)c(C(F)(F)F)c2)cc1C#Cc1cnc2cccnn12 [PONATINIB]
[2]
  Kp: 1.6

## COc1cc(N2CCC(N3CCN(C)CC3)CC2)ccc1Nc1ncnc(Nc2ccccc2S(=O)(=O)C(C)C)n1 [ASP-3026]
[6]
  Kp: 0.72

## Cc1cc(Nc2ncnc3ccc(NC4=NC(C)(C)CO4)cc23)ccc1Oc1ccn2ncnc2c1 [TUCATINIB]
[7]
  Kp: 0.5

## CN[C@@H]1C[C@H]2O[C@@](C)([C@@H]1OC)n1c3ccccc3c3c4c(c5c6ccccc6n2c5c31)C(=O)N[C@H]4O [UCN-01]
[8]
  Kp: 0.5

## COc1cc2ncnc(Nc3ccc(F)c(Cl)c3)c2cc1OCCCN1CCOCC1 [GEFITINIB]
[9]
  Kp uu: 0.09
[4]
  Kp uu: 0.02
